The nature of this series: recombinant UMI read abundance after kanamycin selection (control-corrected) (log10(CPM+1)); higher = more efficient recombination; extreme values may be limits of the assay; sequences stand for … in AGTGCAGAGAAAATCGGCCAGTTTTCTCTGCCTGCAGTCCGCATGCCGTGGGACCCCTTGGGTTCTAACCTGTTGCCTAGATTTATGCAGCGGACTGCCTTTCTCCCAAAGTGATAAACCGG…AGGTTGGTTTCACT; site = the 11-nt donor. The method, boiled down: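 Pooled Escherichia coli screen of donor and donor-binding-loop pairs for the IS621 bridge recombinase. Each pair sits with a 12-nt UMI on a plasmid carrying a promoterless kanamycin gene. The library was co-electroporated with a target plasmid encoding a fixed target and T7-inducible recombinase, then plated with IPTG (0.07 mM) plus kanamycin, or unselected, each in two replicates. Recombinant UMIs were PCR-amplified across the donor–target junction and sequenced. Counts became CPM, averaged over replicates, scaled by control-derived factors and reported as log10(CPM+1).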
Turning to “CACTTCGCATGGACCGGTTTTCCCGGTAATCCGTATTTGGA (site CACTTCGCTTC)”, the “recombinant UMI read abundance (log10)” value amounted to 0.493.

For “CACTTCGCATGGACCGGTTTTCCCGGTAATCCGTATTTGGA (site CACTTGGCTTC)”, the “recombinant UMI read abundance (log10)” value stood at 0.

Take “CACTTCGCATGGACCGGTTTTCCCGGTAATCCGTATTTGGA (site CACTTTGCTTC)”: the “recombinant UMI read abundance (log10)” value came to 0.00357.

As for “CACTTGGCATGGACCGGTTTTCCCGGTAATCCGTATTTGCA (site CACTTGGCTTA)”, the “recombinant UMI read abundance (log10)” value amounted to 0.00954.

As to “CACTTGGCATGGACCGGTTTTCCCGGTAATCCGTATTTGCA (site CACTTGGCTTC)”, the “recombinant UMI read abundance (log10)” value is 0.0203.

In the case of “CACTTGGCATGGACCGGTTTTCCCGGTAATCCGTATTTGCA (site CACTTGGCTTG)”, the “recombinant UMI read abundance (log10)” value was 0.498.

With “CACTTGGCATGGACCGGTTTTCCCGGTAATCCGTATTTGCA (site CACTTGGCTTT)”, the “recombinant UMI read abundance (log10)” value is 0.0216.

For the sequence “CACTTGGCATGGACCGGTTTTCCCGGTAATCCGTATTTGCT (site CACTTGGCTAG)”, the “recombinant UMI read abundance (log10)” value was 0.

Regarding “CAGAACCCATGGACCGGTTTTCCCGGTAATCCGTATTTGAG (site CAGAACCCTCT)”, the “recombinant UMI read abundance (log10)” value was 1.35.

In the case of “CAGAAGACATGGACCGGTTTTCCCGGTAATCCGTATTTGCA (site AGGAAGACTTG)”, the “recombinant UMI read abundance (log10)” value is 0.401.

On to “CAGAAGACATGGACCGGTTTTCCCGGTAATCCGTATTTGCA (site CAGAAGACTTG)”, for which the “recombinant UMI read abundance (log10)” value came to 3.09.

As to “CAGACGACATGGACCGGTTTTCCCGGTAATCCGTATTTGGG (site CAGACGACTCC)”, the “recombinant UMI read abundance (log10)” value came to 0.00735.

As for “CAGACGACATGGACCGGTTTTCCCGGTAATCCGTATTTGGG (site CAGCCGACTCC)”, the “recombinant UMI read abundance (log10)” value was 0.0345.

As for “CAGACGACATGGACCGGTTTTCCCGGTAATCCGTATTTGGG (site CAGGCGACTCC)”, the “recombinant UMI read abundance (log10)” value was 0.0123.

Turning to “CAGACGACATGGACCGGTTTTCCCGGTAATCCGTATTTGGG (site CAGTCGACTCC)”, the “recombinant UMI read abundance (log10)” value came out at 0.0666.

As to “CAGATCCCATGGACCGGTTTTCCCGGTAATCCGTATTTGGT (site CAGATCCCTAC)”, the “recombinant UMI read abundance (log10)” value turned out to be 1.42.

As to “CAGCACGCATGGACCGGTTTTCCCGGTAATCCGTATTTGAT (site CAGCACGCTAT)”, the “recombinant UMI read abundance (log10)” value turned out to be 2.39.

Regarding “CAGCCGACATGGACCGGTTTTCCCGGTAATCCGTATTTGGG (site CAGACGACTCC)”, the “recombinant UMI read abundance (log10)” value was 0.0262.

As for “CAGCCGACATGGACCGGTTTTCCCGGTAATCCGTATTTGGG (site CAGCCGACTCC)”, the “recombinant UMI read abundance (log10)” value amounted to 0.188.

For “CAGCCGACATGGACCGGTTTTCCCGGTAATCCGTATTTGGG (site CAGGCGACTCC)”, the “recombinant UMI read abundance (log10)” value is 0.0119.

Turning to “CAGCCGACATGGACCGGTTTTCCCGGTAATCCGTATTTGGG (site CAGTCGACTCC)”, the “recombinant UMI read abundance (log10)” value came out at 0.00469.

Consider “CAGCGAACATGGACCGGTTTTCCCGGTAATCCGTATTTGGG (site CAGCGAACTCC)”, for which the “recombinant UMI read abundance (log10)” value was determined as 0.888.

Regarding “CAGCTACCATGGACCGGTTTTCCCGGTAATCCGTATTTGCT (site CAGCTACCTAG)”, the “recombinant UMI read abundance (log10)” value was 0.

Take “CAGCTACCATGGACCGGTTTTCCCGGTAATCCGTATTTGCT (site CCGCTACCTAG)”: the “recombinant UMI read abundance (log10)” value is 0.

For “CAGCTACCATGGACCGGTTTTCCCGGTAATCCGTATTTGCT (site CGGCTACCTAG)”, the “recombinant UMI read abundance (log10)” value came to 0.

On to “CAGCTACCATGGACCGGTTTTCCCGGTAATCCGTATTTGCT (site CTGCTACCTAG)”, for which the “recombinant UMI read abundance (log10)” value turned out to be 0.

As for “CAGGAACCATGGACCGGTTTTCCCGGTAATCCGTATTTGAT (site CAGGAACCTAT)”, the “recombinant UMI read abundance (log10)” value came to 0.

As to “CAGGAACCATGGACCGGTTTTCCCGGTAATCCGTATTTGAT (site CCGGAACCTAT)”, the “recombinant UMI read abundance (log10)” value was found to be 0.

As to “CAGGAACCATGGACCGGTTTTCCCGGTAATCCGTATTTGAT (site CGGGAACCTAT)”, the “recombinant UMI read abundance (log10)” value is 0.

Consider “CAGGAACCATGGACCGGTTTTCCCGGTAATCCGTATTTGAT (site CTGGAACCTAT)”, for which the “recombinant UMI read abundance (log10)” value came to 0.

Consider “CAGGACTCATGGACCGGTTTTCCCGGTAATCCGTATTTGTC (site CAGGACTCTGA)”, for which the “recombinant UMI read abundance (log10)” value was determined as 3.38.

“CAGGGGTCATGGACCGGTTTTCCCGGTAATCCGTATTTGTA (site CAGGGGTCTTA)”: the “recombinant UMI read abundance (log10)” value was determined as 3.37.

For “CAGTAACCATGGACCGGTTTTCCCGGTAATCCGTATTTGAA (site CAGTAACCTTT)”, the “recombinant UMI read abundance (log10)” value was found to be 0.255.

On to “CAGTAACCATGGACCGGTTTTCCCGGTAATCCGTATTTGGA (site CAGTAACCTTC)”, for which the “recombinant UMI read abundance (log10)” value came out at 0.00404.

Regarding “CAGTACACATGGACCGGTTTTCCCGGTAATCCGTATTTGAC (site CAGTACACTGT)”, the “recombinant UMI read abundance (log10)” value turned out to be 3.63.

Turning to “CAGTAGACATGGACCGGTTTTCCCGGTAATCCGTATTTGTC (site CAGTAGACTGA)”, the “recombinant UMI read abundance (log10)” value came to 2.13.

For “CAGTAGGCATGGACCGGTTTTCCCGGTAATCCGTATTTGCA (site CAGTAGGCTTG)”, the “recombinant UMI read abundance (log10)” value is 2.82.

With “CAGTCACCATGGACCGGTTTTCCCGGTAATCCGTATTTGTA (site CAGTCACCTTA)”, the “recombinant UMI read abundance (log10)” value came to 0.0069.

As to “CAGTCCTCATGGACCGGTTTTCCCGGTAATCCGTATTTGAA (site CAGTCCTCTTT)”, the “recombinant UMI read abundance (log10)” value amounted to 1.96.

For “CAGTCGACATGGACCGGTTTTCCCGGTAATCCGTATTTGAG (site CAGTCGACTCA)”, the “recombinant UMI read abundance (log10)” value amounted to 0.00421.

As for “CAGTCGACATGGACCGGTTTTCCCGGTAATCCGTATTTGAG (site CAGTCGACTCC)”, the “recombinant UMI read abundance (log10)” value worked out at 0.0115.

For “CAGTCGACATGGACCGGTTTTCCCGGTAATCCGTATTTGAG (site CAGTCGACTCG)”, the “recombinant UMI read abundance (log10)” value came out at 0.00367.

“CAGTCGACATGGACCGGTTTTCCCGGTAATCCGTATTTGAG (site CAGTCGACTCT)”: the “recombinant UMI read abundance (log10)” value is 0.855.

On to “CAGTCGGCATGGACCGGTTTTCCCGGTAATCCGTATTTGGG (site CAGTCGACTCC)”, for which the “recombinant UMI read abundance (log10)” value is 0.027.

Turning to “CAGTCGGCATGGACCGGTTTTCCCGGTAATCCGTATTTGGG (site CAGTCGCCTCC)”, the “recombinant UMI read abundance (log10)” value amounted to 0.0091.

“CAGTCGGCATGGACCGGTTTTCCCGGTAATCCGTATTTGGG (site CAGTCGGCTCC)”: the “recombinant UMI read abundance (log10)” value is 0.157.

As for “CAGTCGGCATGGACCGGTTTTCCCGGTAATCCGTATTTGGG (site CAGTCGTCTCC)”, the “recombinant UMI read abundance (log10)” value came to 0.0153.

Consider “CAGTCGGCATGGACCGGTTTTCCCGGTAATCCGTATTTGGT (site CAGTCGGCTAC)”, for which the “recombinant UMI read abundance (log10)” value was 0.814.

For the sequence “CAGTGTACATGGACCGGTTTTCCCGGTAATCCGTATTTGCA (site CAGTGTACTTG)”, the “recombinant UMI read abundance (log10)” value was found to be 2.48.

Regarding “CAGTTACCATGGACCGGTTTTCCCGGTAATCCGTATTTGCC (site CAGTTACCTGG)”, the “recombinant UMI read abundance (log10)” value was 0.

“CAGTTCTCATGGACCGGTTTTCCCGGTAATCCGTATTTGGC (site CAGTTCTCTGC)”: the “recombinant UMI read abundance (log10)” value was 3.27.

In the case of “CAGTTGCCATGGACCGGTTTTCCCGGTAATCCGTATTTGGT (site CAGTTGCCTAC)”, the “recombinant UMI read abundance (log10)” value came to 0.0159.

For the origin of these results see the supplement of paper PMC11208160.
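Note: IS621 bridge recombinase in Escherichia coli cells against a fixed T5 target plasmid.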
